Measurements published in PubChem BioAssay (NCI).
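Five concentrations, 48 hours, 96-well plates. Here, GI50 denotes the concentration required for 50% inhibition of growth. TGI denotes the concentration required for complete inhibition of growth.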

Legend:
Test in all cases: growth of human tumour cells (NCI), 48 h
MDA-MB-468 breast = test system: MDA-MB-468 breast
SF-539 CNS = test system: SF-539 CNS
RXF 393 renal = test system: RXF 393 renal
OVCAR-5 ovarian = test system: OVCAR-5 ovarian
SN12C renal = test system: SN12C renal
HCC-2998 colon = test system: HCC-2998 colon
NCI-H23 lung = test system: NCI-H23 lung
UACC-62 melanoma = test system: UACC-62 melanoma
HS 578T breast = test system: HS 578T breast
CCRF-CEM leukemia = test system: CCRF-CEM leukemia
SF-295 CNS = test system: SF-295 CNS

SMILES | GI50 (MDA-MB-468 breast) [nM] | TGI (MDA-MB-468 breast) [nM] | other results
COC(=O)/C=C/c1cc(OC(C)=O)c2c(c1)C(C(=O)OC)C(c1ccc(OC(C)=O)c(OC(C)=O)c1)O2 (stereo not drawn) | 1200 | 17800 | 
C=CC12CCN(CC1)C(C(O)c1ccnc3ccc(OC)cc13)C2 (stereo not drawn) | 57400 | > 100000 | 
Brc1ccc(/C=C/c2n(Cc3ccc4ccccc4c3)c3ccccc3[n+]2Cc2ccc3ccccc3c2)cc1 | 1340 | 2730 | GI50 (SF-539 CNS): 1670 nM; TGI (SF-539 CNS): 3040 nM; GI50 (RXF 393 renal): 1350 nM; TGI (RXF 393 renal): 2640 nM; GI50 (OVCAR-5 ovarian): 1350 nM; TGI (OVCAR-5 ovarian): 2660 nM; GI50 (SN12C renal): 1640 nM; TGI (SN12C renal): 3030 nM; GI50 (HCC-2998 colon): 1490 nM; TGI (HCC-2998 colon): 2830 nM; GI50 (NCI-H23 lung): 1330 nM; TGI (NCI-H23 lung): 2680 nM; GI50 (UACC-62 melanoma): 1530 nM; TGI (UACC-62 melanoma): 2900 nM; GI50 (HS 578T breast): 1480 nM; TGI (HS 578T breast): 3870 nM; GI50 (CCRF-CEM leukemia): 519 nM; TGI (CCRF-CEM leukemia): > 100000 nM; GI50 (SF-295 CNS): 1400 nM; TGI (SF-295 CNS): 2730 nM
CCCCCCn1c(-c2ccc(C(=O)O/N=C(\N)c3ccc4c(c3)OCO4)cc2)nc(-c2ccccc2)c1-c1ccccc1 | 2110 | 5620 | 
COc1ccc(-c2cc(=O)oc3c4c(ccc23)OCN(Cc2ccc(F)cc2)C4)cc1 | 15700 | 36300 | 
OC(c1cc2cc(Cl)ccc2c2cc(C(F)(F)F)ccc12)C1CCCCN1 (stereo not drawn) | 1660 | 3200 | 
N#CC(I)CS(=O)(=O)c1ccccc1 (stereo not drawn) | 3550 | 14100 | 
CNCCCNc1ccnc2cc(Cl)ccc12 | 12700 | 33500 | 
Cc1cccc(NC2=C(Cl)C(=O)c3nc(C)ccc3C2=O)c1 | 1270 | 2890 | 
CN(C)CCN1CCC(Cc2ccccc2)CC1 | > 80000 | > 80000 | 
CCN(Cc1c(F)cccc1OC)c1ccc(CO)c(Cl)c1 | 28.5 | 144 | 
NC(=O)c1cc(I)ccc1NC(=O)/C=C/c1ccccc1 | 732 | 47100 | 
NC(N)=Nc1nc2ccccc2o1 | > 100000 | > 100000 | 
COc1nc(=O)n(C2C=CC(=O)O2)cc1F (stereo not drawn) | 1930 | 9100 | 
